According to ChEMBL document CHEMBL3046815, “Evaluation of fungicides for the management of Botryosphaeria dieback diseases of grapevines” (Pest Manag Sci, 2012):

What was measured:
Neofusicoccum luteum [1] = assay: Fungicidal activity against Neofusicoccum luteum N(12)2 assessed as mycelial growth inhibition after 48 hr; assay type: functional, organism-based; settings: pooled result: one value given for 3 cell lines, strains, targets or settings
Neofusicoccum luteum [2] = assay: Fungicidal activity against Neofusicoccum luteum N(12)2 assessed as conidial germination inhibition after 48 hr; assay type: functional, organism-based; settings: pooled result: one value given for 3 cell lines, strains, targets or settings
Neofusicoccum australe [3] = assay: Fungicidal activity against Neofusicoccum australe J-3 assessed as conidial germination inhibition after 48 hr; assay type: functional, organism-based; settings: pooled result: one value given for 3 cell lines, strains, targets or settings
Neofusicoccum luteum [4] = assay: Fungicidal activity against Neofusicoccum luteum infected Pinot noir grapevine assessed as pathogen incidence at 210 g AI /100 L applied 24 hr prior inoculation to pruning wound measured after 3 months; assay type: functional
Neofusicoccum luteum [5] = assay: Fungicidal activity against Neofusicoccum luteum infected Pinot noir grapevine assessed as dieback lesion length at 210 g AI /100 L applied 24 hr prior inoculation to pruning wound measured after 3 months; assay type: functional
Diplodia mutila [6] = assay: Fungicidal activity against Diplodia mutila Q assessed as mycelial growth inhibition after 48 hr; assay type: functional, organism-based; settings: pooled result: one value given for 3 cell lines, strains, targets or settings
Diplodia mutila [7] = assay: Fungicidal activity against Diplodia mutila Q assessed as conidial germination inhibition after 48 hr; assay type: functional, organism-based; settings: pooled result: one value given for 3 cell lines, strains, targets or settings
Neofusicoccum australe [8] = assay: Fungicidal activity against Neofusicoccum australe J-3 assessed as mycelial growth inhibition after 48 hr; assay type: functional, organism-based; settings: pooled result: one value given for 3 cell lines, strains, targets or settings
Neofusicoccum luteum [9] = assay: Fungicidal activity against Neofusicoccum luteum infected Pinot noir grapevine assessed as non-lesion areas compound applied 24 hr prior inoculation to pruning wound measured after 1 year; assay type: functional; parameters: concentration or dose not given beside the values
Neofusicoccum luteum [10] = assay: Fungicidal activity against Neofusicoccum luteum infected Pinot noir grapevine assessed as dieback lesion length at 40 g AI /100 L applied 24 hr prior inoculation to pruning wound measured after 3 months; assay type: functional
Neofusicoccum luteum [11] = assay: Fungicidal activity against Neofusicoccum luteum infected Pinot noir grapevine assessed as mean pathogen compound applied 24 hr prior inoculation to pruning wound measured after 1 year; assay type: functional; parameters: concentration or dose not given beside the values
Neofusicoccum luteum [12] = assay: Fungicidal activity against Neofusicoccum luteum infected Pinot noir grapevine assessed as pathogen incidence at area beyond node compound applied 24 hr prior inoculation to pruning wound measured after 1 year; assay type: functional; parameters: concentration or dose not given beside the values
Neofusicoccum luteum [13] = assay: Fungicidal activity against Neofusicoccum luteum infected Pinot noir grapevine assessed as pathogen incidence at dieback edges compound applied 24 hr prior inoculation to pruning wound measured after 1 year; assay type: functional; parameters: concentration or dose not given beside the values
Neofusicoccum luteum [14] = assay: Fungicidal activity against Neofusicoccum luteum infected Pinot noir grapevine assessed as pathogen incidence at dieback sites compound applied 24 hr prior inoculation to pruning wound measured after 1 year; assay type: functional; parameters: concentration or dose not given beside the values
Neofusicoccum luteum [15] = assay: Fungicidal activity against Neofusicoccum luteum infected Pinot noir grapevine assessed as pathogen incidence at 40 g AI /100 L applied 24 hr prior inoculation to pruning wound measured after 3 months; assay type: functional
Neofusicoccum luteum [16] = assay: Fungicidal activity against Neofusicoccum luteum infected Pinot noir grapevine assessed as pathogen incidence at closest side shoot compound applied 24 hr prior inoculation to pruning wound measured after 6 months; assay type: functional; parameters: concentration or dose not given beside the values
Neofusicoccum luteum [17] = assay: Fungicidal activity against Neofusicoccum luteum infected Pinot noir grapevine assessed as dieback lesion length at 25 g AI /100 L applied 24 hr prior inoculation to pruning wound measured after 3 months; assay type: functional
Neofusicoccum luteum [18] = assay: Fungicidal activity against Neofusicoccum luteum infected Pinot noir grapevine assessed as pathogen incidence at 25 g AI /100 L applied 24 hr prior inoculation to pruning wound measured after 3 months; assay type: functional
Neofusicoccum luteum [19] = assay: Fungicidal activity against Neofusicoccum luteum infected Pinot noir grapevine assessed as pathogen incidence at 32 g AI /100 L applied 24 hr prior inoculation to pruning wound measured after 3 months; assay type: functional
Neofusicoccum luteum [20] = assay: Fungicidal activity against Neofusicoccum luteum infected Pinot noir grapevine assessed as dieback lesion length at 32 g AI /100 L applied 24 hr prior inoculation to pruning wound measured after 3 months; assay type: functional
Neofusicoccum luteum [21] = assay: Fungicidal activity against Neofusicoccum luteum infected Pinot noir grapevine assessed as pathogen incidence at 55 g AI /100 L applied 24 hr prior inoculation to pruning wound measured after 3 months; assay type: functional
Neofusicoccum luteum [22] = assay: Fungicidal activity against Neofusicoccum luteum infected Pinot noir grapevine assessed as dieback lesion length at 55 g AI /100 L applied 24 hr prior inoculation to pruning wound measured after 3 months; assay type: functional

| Compound | EC50 (Neofusicoccum luteum [1]) [mgAi/L] | EC50 (Neofusicoccum luteum [2]) [mgAi/L] | EC50 (Neofusicoccum australe [3]) [mgAi/L] | EC50 (Diplodia mutila [6]) [mgAi/L] | EC50 (Diplodia mutila [7]) [mgAi/L] | EC50 (Neofusicoccum australe [8]) [mgAi/L] | Activity (Neofusicoccum luteum [9]) [%] | Activity (Neofusicoccum luteum [11]) [%] | Activity (Neofusicoccum luteum [12]) [%] | Activity (Neofusicoccum luteum [13]) [%] | Activity (Neofusicoccum luteum [14]) [%] | Activity (Neofusicoccum luteum [16]) [%] | also measured |
| --- | --- | --- | --- | --- | --- | --- | --- | --- | --- | --- | --- | --- | --- |
| N#Cc1c(Cl)c(Cl)c(Cl)c(C#N)c1Cl [CHLOROTHALONIL] | 7.873 | 11.15 | 10.79 | 0.258 | 1.35 | 3.847 | – | – | – | – | – | – | Activity (Neofusicoccum luteum [4]): 30%; Activity (Neofusicoccum luteum [5]): 51.9 mm |
| COC(=O)NC(=S)Nc1ccccc1NC(=S)NC(=O)OC [THIOPHANATE METHYL] | 1.237 | 2.41 | 5.09 | 0.485 | 0.29 | 1.079 | 17 | 20 | 0 | 33 | 47 | 3 | Activity (Neofusicoccum luteum [10]): 53.3 mm; Activity (Neofusicoccum luteum [15]): 30% |
| O=CNC(N1CCN(C(NC=O)C(Cl)(Cl)Cl)CC1)C(Cl)(Cl)Cl (centres undefined) [TRIFORINE] | 23.73 | 159.9 | 126.3 | 0.039 | 49.59 | 28.139 | – | – | – | – | – | – | – |
| COC(=O)Nc1nc2ccccc2[nH]1 [CARBENDAZIM] | 0.061 | 0.04 | 0.01 | – | 0.01 | 0.023 | 7 | 9 | 0 | 10 | 27 | 3 | Activity (Neofusicoccum luteum [17]): 33.2 mm; Activity (Neofusicoccum luteum [18]): 0% |
| CC(C)(C)C(O)(CCc1ccc(Cl)cc1)Cn1cncn1 (centres undefined) [TEBUCONAZOLE] | 0.076 | 6.23 | 3.38 | 0.01 | 0.6 | 0.098 | 13 | 16 | 0 | 27 | 37 | 3 | Activity (Neofusicoccum luteum [19]): 20%; Activity (Neofusicoccum luteum [20]): 50.2 mm |
| CC12CC1(C)C(=O)N(c1cc(Cl)cc(Cl)c1)C2=O (centres undefined) [PROCYMIDONE] | 0.183 | 0.02 | 0.01 | 0.227 | – | 0.23 | 20 | 27 | 0 | 40 | 70 | 7 | Activity (Neofusicoccum luteum [21]): 20%; Activity (Neofusicoccum luteum [22]): 47.8 mm |
| COPPER HYDROXIDE | 77.437 | 8.7 | 5.68 | 68.64 | 4.16 | 106.83 | – | – | – | – | – | – | – |
